Experimental data published in BigSolDB 2.1.

COc1ccc2c3c1O[C@H]1[C@@H](O)C=C[C@H]4[C@@H](C2)N(C)CC[C@@]341.O=P(O)(O)O
solubility (mole fraction)
Conditions | 293.2 K | 298.2 K | 303.2 K | 308.2 K | 313.2 K
in NMP | 0.00206 | 0.00212 | 0.00239 | 0.00249 | 0.00259
in isopropanol | 1.96e-05 | 2.52e-05 | 2.99e-05 | 3.6e-05 | 3.99e-05
